In patent US9604925B2, “Class II HMG-CoA reductase inhibitors and methods of use” (Purdue Research Foundation, priority 2012, dated 2017):
Values after ≈ are worked out from the molar mass of the structure shown. Marks after values point to notes of the source that are not given here. Blank lines part the entries; values can stand above or below the compound they belong to.

How the values were obtained:
[1] = tested on: vancomycin resistant Enterococcus faecalis (VRE) ATCC 51299; assay: MIC/MBC micro dilution against VRE; conditions: VRE ATCC 51299, MHB, 20 hours
S. aureus HMGR = S. aureus HMGR (Staphylococcus aureus, UniProt Q9FD86); assay: biochemical
[2] = tested on: methicillin-resistant Staphylococcus aureus (MRSA) ATCC 43300; assay: MIC/MBC micro dilution against MRSA; conditions: for MRSA MBC: MRSA ATCC 43300, MHB, 20 hours, Table 2; for MBC / MIC: Staphylococcus aureus; for MBC, μM: MRSA, Table 1
[3] = tested on: Staphylococcus aureus ATCC 6538 adherent organisms (biofilm); assay: MIC/MBC in adherent-cell biofilm of S. aureus ATCC 6538; type: cell-based; conditions: for Adherent organisms (biofilm) MIC^b: S. aureus ATCC 6538, 20 h; for Adherent organisms (biofilm) MBC^b: S. aureus ATCC 6538, regrowth 20 h in antibiotic-free MHB
Experimental: An adherent biofilm for susceptibility testing was formed using a clinical isolate of Staphylococcus aureus (ATCC 6538). S. aureus biofilms were prepared in a tissue culture non-treated polystyrene 96-well plate (Corning) and washed with phosphate-buffered saline (PBS) to remove unbound bacteria. Subsequently, serial twofold dilutions of the compounds in MHB were added to wells containing adherent organisms. The polystyrene plates were incubated for 20 h at 37° C. The MIC was taken as the lowest drug concentration at which observable growth was inhibited.

[4] = tested on: C. elegans infected with VRE; assay: Treatment of C. elegans infected with VRE; conditions: VRE-infected worms, 100 μM; for Log CFU/worm: 16 hours treatment; for Log Reduction: versus DMSO control
[5] = tested on: C. elegans infected with MRSA; assay: Treatment of C. elegans infected with MRSA; conditions: MRSA-infected worms, 100 μM; for Log CFU/worm: 16 hours treatment; for Log Reduction: versus DMSO control
[6] = tested on: clinical methicillin-resistant Staphylococcus aureus (MRSA) isolates; assay: MIC/MBC against clinical MRSA isolates
[7] = tested on: vancomycin intermediate Staphylococcus aureus (VISA) NRS1; assay: MIC/MBC against clinical VISA isolate
[8] = tested on: Staphylococcus aureus ATCC 6538 planktonic organisms (not in biofilm); assay: MIC/MBC against planktonic S. aureus ATCC 6538; type: cell-based
J774A.1 cells = assay: In vitro cell viability/cytotoxicity MTS assay; type: cell-based; conditions: 100 μM, 24 hours
Experimental: Cytotoxicity of the compounds was evaluated using J774A.1 cells (mitochondrial function) in the CellTiter 96® AQueous Non-Radioactive Cell Proliferation Assay (Promega). […] Formazan is measured by measuring the absorbance at 490 nm. Briefly, ˜2×10^4 J774A.1 cells suspended in 200 μL DMEM supplemented with 10% fetal bovine serum (FBS), L-glutamine, NaHCO3, pyridoxine-HCl, and […] glucose and preserved with 1% penicillin-streptomycin solution were seeded in 96-well plates and incubated at 37° C. in a 5% CO2 atmosphere. The cells were cultured for 24 hours (60% confluency) before the assays. The J774A.1 cells were further incubated with 100 μM of compounds (2f, […], 2j, and 2e) and DMSO as a control for 24 hours. The culture media was discarded, and the cells in each well were washed with PBS and re-suspended with 100 μL of cell culture media prior to addition of the assay reagent. The plates were incubated for 4 hours at 37° C. in a humidified 5% CO2 atmosphere. The absorbance at 490 nm was recorded using a 96-well Elisa plate reader (SoftMax ProInc., USA). Results were expressed as the percentage mean absorbance by cells upon incubation with various treatments (compounds 2f, 2j, 2i, and 2e) with respect to incubation with DMSO. The results are expressed as means from six measurements±SD.

[9] = tested on: Candida albicans ATCC 18804; assay: MIC/MFC against Candida albicans in YM broth; type: cell-based; conditions: yeast medium broth
Experimental: Antifungal activities of 22 HMG-CoA Reductase inhibitors were initially tested at 100 μM concentration against Candida albicans ATCC 18804.

Compound: CC(=O)NC[C@H]1CN(c2ccc(N3CCOCC3)c(F)c2)C(=O)O1 [Linezolid, linezolid, reference compound]
Adherent organisms (biofilm) MIC^b [3]: 4 µM | Adherent organisms (biofilm) MBC^b [3]: 16 µM | Log CFU/worm [4]: 1.47 ± 0.06 Log CFU/worm | Log Reduction [4]: 3.43*

Compound: CCCc1ccc(NS(=O)(=O)c2ccc(O)c(C(=O)O)c2)cc1 [Compound 2b, 2-hydroxy-5-[N-(4-propylphenyl)sulfamoyl]benzoic acid]
IC50, μM (S. aureus HMGR): ^d (No significant inhibition of HMGR activity was observed at the concentrations tested.)

Compound: CCCCCCCCCCCCCCc1ccc(NS(=O)(=O)c2ccc(O)c(C(=O)O)c2)cc1 [Compound 2h, 2-hydroxy-5-[N-(4-tetradecylphenyl)sulfamoyl]benzoic acid]
IC50 (S. aureus HMGR): 1.9 µM | improvement of IC50 over lead compound 1 (S. aureus HMGR): 45 fold | MBC, μM [2]: lost bactericidal activity

Compound: CC(C)(C)CCc1ccc(NS(=O)(=O)c2ccc(O)c(C(=O)O)c2)cc1 [Compound 2k, 5-[N-(4-(3,3-dimethylbutyl)phenyl)sulfamoyl]-2-hydroxybenzoic acid]
VRE MBC [1]: 128/128 | MBC, μM [2]: failed to exhibit any activity

Compound: O=C(O)c1cc(S(=O)(=O)Nc2ccc(CCc3ccccc3)cc2)ccc1O [Compound 2m, 2-hydroxy-5-[N-(4-phenethylphenyl)sulfamoyl]benzoic acid]
MBC, μM [2]: no enzymatic inhibition or bactericidal activity

Compound: CCc1ccc(NS(=O)(=O)c2ccc(O)c(C(=O)O)c2)cc1 [Compound 2a, 5-[N-(4-ethylphenyl)sulfamoyl]-2-hydroxybenzoic acid]
IC50, μM (S. aureus HMGR): ^d (No significant inhibition of HMGR activity was observed at the concentrations tested.)

Compound: CCCCc1ccc(NS(=O)(=O)c2ccc(OCC(N)=O)c(C(=O)O)c2)cc1 [Compound 3, 5-[N-(4-butylphenyl)sulfamoyl]-2-(carbamoylmethoxy)benzoic acid]
MBC, μM [2]: failed to show any enzymatic inhibition or bactericidal activity

More lines, main results first:

IC50 (S. aureus HMGR): 5.9 ± 0.5 µM | MIC [2]: 128 µM (≈ 59.1 µg/mL)
Compound: CCCCCCCCCCCCc1ccc(NS(=O)(=O)c2ccc(O)c(C(=O)O)c2)cc1 [Compound 2g, 5-[N-(4-dodecylphenyl)sulfamoyl]-2-hydroxybenzoic acid]
VRE MBC [1]: 128/128 | MRSA MBC [2]: 128/>128 | MBC [2]: 128 µM (≈ 59.1 µg/mL)

MIC ([6]; MRSA / NRS123 / USA400): 16 µM (≈ 6.46 µg/mL) | MIC ([6]; MRSA / NRS382 / USA100): 16 µM (≈ 6.46 µg/mL) | MIC ([6]; MRSA / NRS383 / USA200): 16 µM (≈ 6.46 µg/mL) | MIC ([6]; MRSA / NRS384 / USA300): 16 µM (≈ 6.46 µg/mL) | MIC ([6]; MRSA / NRS385 / USA500): 16 µM (≈ 6.46 µg/mL) | MIC ([6]; MRSA / NRS386 / USA700): 16 µM (≈ 6.46 µg/mL) | MIC ([6]; MRSA / NRS387 / USA800): 16 µM (≈ 6.46 µg/mL) | MIC ([6]; MRSA / NRS483): 8 µM (≈ 3.23 µg/mL) | MIC ([6]; MRSA / NRS484): 16 µM (≈ 6.46 µg/mL) | MIC [7]: 16 µM (≈ 6.46 µg/mL) | IC50 (S. aureus HMGR): 16.2 ± 10 µM | MIC [2]: 32 µM (≈ 12.9 µg/mL)
Compound: O=C(O)c1cc(S(=O)(=O)Nc2ccc(CCC3CCCCC3)cc2)ccc1O [Compound 2l, 5-[N-(4-(2-cyclohexylethyl)phenyl)sulfamoyl]-2-hydroxybenzoic acid]
Log CFU/worm [5]: 2.20 ± 0.43 Log CFU/worm | Log Reduction [5]: 2.84* | VRE MBC [1]: 64/64 | MBC ([6]; MRSA / NRS123 / USA400): 16 µM (≈ 6.46 µg/mL) | MBC ([6]; MRSA / NRS382 / USA100): 16 µM (≈ 6.46 µg/mL) | MBC ([6]; MRSA / NRS383 / USA200): 16 µM (≈ 6.46 µg/mL) | MBC ([6]; MRSA / NRS384 / USA300): 16 µM (≈ 6.46 µg/mL) | MBC ([6]; MRSA / NRS385 / USA500): 16 µM (≈ 6.46 µg/mL) | MBC ([6]; MRSA / NRS386 / USA700): 16 µM (≈ 6.46 µg/mL) | MBC ([6]; MRSA / NRS387 / USA800): 16 µM (≈ 6.46 µg/mL) | MBC ([6]; MRSA / NRS483): 16 µM (≈ 6.46 µg/mL) | MBC ([6]; MRSA / NRS484): 16 µM (≈ 6.46 µg/mL) | MBC [7]: 16 µM (≈ 6.46 µg/mL) | Log CFU/worm [4]: 0.43 ± 0.68 Log CFU/worm | Log Reduction [4]: 4.47* | MRSA MBC [2]: 32/32 | MBC [2]: 32 µM (≈ 12.9 µg/mL)

Adherent organisms (biofilm) MIC^b [3]: 128 µM | Planktonic organisms (not in biofilm) MIC [8]: 128 µM | IC50 (S. aureus HMGR): 36 ± 4 µM | MIC [2]: 64 µM (≈ 24.2 µg/mL)
Compound: CC(C)CCCc1ccc(NS(=O)(=O)c2ccc(O)c(C(=O)O)c2)cc1 [Compound 2i, 2-hydroxy-5-[N-(4-(4-methylpentyl)phenyl]sulfamoyl)benzoic acid]
Adherent organisms (biofilm) MBC^b [3]: 128 µM | Planktonic organisms (not in biofilm) MBC [8]: 128 µM | percentage mean absorbance at 490 nm (MTS) versus DMSO (J774A.1 cells): no significant differences in percentage mean absorption

Adherent organisms (biofilm) MIC^b [3]: 128 µM | Planktonic organisms (not in biofilm) MIC [8]: 128 µM | IC50 (S. aureus HMGR): 77 ± 6 µM | MIC [2]: 128 µM (≈ 48.3 µg/mL)
Compound: CCCCCCc1ccc(NS(=O)(=O)c2ccc(O)c(C(=O)O)c2)cc1 [Compound 2d, 5-[N-(4-hexylphenyl)sulfamoyl]-2-hydroxybenzoic acid]
Adherent organisms (biofilm) MBC^b [3]: >128 µM | Planktonic organisms (not in biofilm) MBC [8]: 128 µM | MRSA MBC [2]: 128/128 | MBC [2]: 128 µM (≈ 48.3 µg/mL)

Adherent organisms (biofilm) MIC^b [3]: 64 µM | MIC ([6]; MRSA / NRS123 / USA400): 32 µM (≈ 12.5 µg/mL) | MIC ([6]; MRSA / NRS382 / USA100): 32 µM (≈ 12.5 µg/mL) | MIC ([6]; MRSA / NRS383 / USA200): 16 µM (≈ 6.26 µg/mL) | MIC ([6]; MRSA / NRS384 / USA300): 32 µM (≈ 12.5 µg/mL) | MIC ([6]; MRSA / NRS385 / USA500): 16 µM (≈ 6.26 µg/mL) | MIC ([6]; MRSA / NRS386 / USA700): 32 µM (≈ 12.5 µg/mL) | MIC ([6]; MRSA / NRS387 / USA800): 16 µM (≈ 6.26 µg/mL) | MIC ([6]; MRSA / NRS483): 16 µM (≈ 6.26 µg/mL) | MIC ([6]; MRSA / NRS484): 16 µM (≈ 6.26 µg/mL) | MIC [7]: 16 µM (≈ 6.26 µg/mL) | Planktonic organisms (not in biofilm) MIC [8]: 64 µM | IC50 (S. aureus HMGR): 28 µM | Candida albicans MIC [9]: 64 µM | MIC [2]: 64 µM (≈ 25.1 µg/mL)
Compound: CCCCCCCc1ccc(NS(=O)(=O)c2ccc(O)c(C(=O)O)c2)cc1 [Compound 2e, 5-[N-(4-heptylphenyl)sulfamoyl]-2-hydroxybenzoic acid]
Log CFU/worm [5]: 1.80 ± 0.10 Log CFU/worm | Log Reduction [5]: 3.24* | VRE MBC [1]: 64/64 | Adherent organisms (biofilm) MBC^b [3]: 128 µM | MBC ([6]; MRSA / NRS123 / USA400): 32 µM (≈ 12.5 µg/mL) | MBC ([6]; MRSA / NRS382 / USA100): 32 µM (≈ 12.5 µg/mL) | MBC ([6]; MRSA / NRS383 / USA200): 32 µM (≈ 12.5 µg/mL) | MBC ([6]; MRSA / NRS384 / USA300): 32 µM (≈ 12.5 µg/mL) | MBC ([6]; MRSA / NRS385 / USA500): 16 µM (≈ 6.26 µg/mL) | MBC ([6]; MRSA / NRS386 / USA700): 32 µM (≈ 12.5 µg/mL) | MBC ([6]; MRSA / NRS387 / USA800): 32 µM (≈ 12.5 µg/mL) | MBC ([6]; MRSA / NRS483): 32 µM (≈ 12.5 µg/mL) | MBC ([6]; MRSA / NRS484): 32 µM (≈ 12.5 µg/mL) | MBC [7]: 16 µM (≈ 6.26 µg/mL) | Planktonic organisms (not in biofilm) MBC [8]: 64 µM | Log CFU/worm [4]: 0.86 ± 1.03 Log CFU/worm | Log Reduction [4]: 4.04* | Candida albicans MFC [9]: 128 µM | percentage mean absorbance at 490 nm (MTS) versus DMSO (J774A.1 cells): no significant differences in percentage mean absorption | MRSA MBC [2]: 64/64 | MBC [2]: 64 µM (≈ 25.1 µg/mL)

IC50 (S. aureus HMGR): 98 ± 3 µM
Compound: CCCCCc1ccc(NS(=O)(=O)c2ccc(O)c(C(=O)O)c2)cc1 [Compound 2c, 2-hydroxy-5-[N-(4-pentylphenyl)sulfamoyl]benzoic acid]
